{"source": "paper PMC9950205", "about": "“Efficacy, safety, and pharmacokinetics of teduglutide in adult Japanese patients with short bowel syndrome and intestinal failure: two phase III studies with an extension” (Surgery Today, 2022)", "key": {"[1]": {"system": "adult Japanese patients with SBS-IF", "experiment": "Urine output, change from baseline", "assay_type": "in vivo, human", "settings": "for 48 h urine output increase from baseline / 48 h urine output percent increase from baseline: 24 weeks", "description": "As in the previous STEPS-1 study, patients participating in the core studies (TED-C14-004 and SHP633-306) underwent an optimization (2–8 weeks) and stabilization (4–8 weeks) period before initiation of treatment with teduglutide, during which PS was adjusted with the goal of achieving a stable target urine output of 1.0–2.0 L/day. All participating patients received teduglutide 0.05 mg/kg SC once daily throughout these three studies. PS was adjusted according to an algorithm based on the change from baseline in urine output and other assessments of fluid balance and nutrition status; the PS adjustment algorithm required reductions in PS if the urine output rose more than 10% above baseline. Patients had study visits at weeks 2 and 4, after which visits were held monthly during TED-C14-004 and SHP633-306. During SHP633-307, patients from SHP633-306 had monthly study visits throughout the 24 total months of treatment and then at 3-month intervals thereafter, and patients from TED-C14-004 had visits at 3-month intervals. The end-of-study assessments for SHP633-306 and TED-C14-004 were combined with the first visit of SHP633-307. SHP633-307 is ending soon with the approval of teduglutide in Japan."}, "[2]": {"system": "adult Japanese patients with SBS-IF", "experiment": "Anti-teduglutide antibodies in blood samples", "assay_type": "in vivo, human", "description": "In TED-C14-004 and SHP633-306, blood samples for PK evaluations were taken pre-dose and at 0.25, 0.5, 1, 2, 3, 4, 6, 8, 10, and 12 h post-dose during the first 12 weeks of treatment with teduglutide. In SHP633-307, patients continuing from study TED-C14-004 had blood samples for PK evaluations taken pre-dose and at […], and 1, 2, 3, 4, 6, 8, 10, and 12 h post-dose at the first extension study visit. Patients continuing from SHP633-306 had blood samples taken pre-dose and 1 and 2 h post-dose at the first extension study visit. Blood samples to test for the presence of antibodies to teduglutide were taken at baseline and weeks 12 and 24 in SHP633-306; ≥ 14 h after dosing at baseline and weeks 12 and 24, and then every 6 months thereafter in TED-C14-004; and every 3 months in SHP633-307.\nSafety analyses included the monitoring of adverse events (AEs), body weight, BMI, vital signs, 12-lead electrocardiogram (ECG), serum biochemistry, hematology, and presence of antibodies to teduglutide. AEs were coded using the Medical Dictionary for Regulatory Activities versions 17.1 (TED-C14-004) and 21.0 (SHP633-306 and SHP633-307). Specifically, AEs were treatment-emergent AEs (TEAEs), defined as any unfavorable and unintended sign (including any abnormal laboratory finding), symptom, or disease that occurred during treatment with teduglutide, whether or not the event was considered to be related to the study drug by the clinical study investigator. AEs were also categorized as mild, moderate, or severe. […] AEs were considered related to treatment with teduglutide, or its administration, based on the investigator's medical judgment."}, "[3]": {"settings": "30 months, TED-C14-004, n = 7, mean ± SD"}, "[4]": {"settings": "after 6 months, patients who advanced to SHP633-307 from SHP633-306, n = 4, mean ± SD"}, "[5]": {"settings": "last visit before interim data cut-off of SHP633-307, patients from TED-C14-004, n = 7, mean ± SD"}}, "data": [{"smiles": "CC[C@H](C)[C@H](NC(=O)[C@H](Cc1ccccc1)NC(=O)[C@H](CC(=O)O)NC(=O)[C@H](CCCNC(=N)N)NC(=O)[C@H](C)NC(=O)[C@H](C)NC(=O)[C@H](CC(C)C)NC(=O)[C@H](CC(N)=O)NC(=O)[C@H](CC(=O)O)NC(=O)[C@H](CC(C)C)NC(=O)[C@@H](NC(=O)[C@@H](NC(=O)[C@H](CC(N)=O)NC(=O)[C@H](CCSC)NC(=O)[C@H](CCC(=O)O)NC(=O)[C@H](CC(=O)O)NC(=O)[C@H](CO)NC(=O)[C@H](Cc1ccccc1)NC(=O)[C@H](CO)NC(=O)CNC(=O)[C@H](CC(=O)O)NC(=O)CNC(=O)[C@@H](N)Cc1c[nH]cn1)[C@@H](C)O)[C@@H](C)CC)C(=O)N[C@@H](CC(N)=O)C(=O)N[C@@H](Cc1c[nH]c2ccccc12)C(=O)N[C@@H](CC(C)C)C(=O)N[C@H](C(=O)N[C@@H](CCC(N)=O)C(=O)N[C@H](C(=O)N[C@@H](CCCCN)C(=O)N[C@H](C(=O)N[C@H](C(=O)N[C@@H](CC(=O)O)C(=O)O)[C@@H](C)O)[C@@H](C)CC)[C@@H](C)O)[C@@H](C)CC", "note": "[teduglutide]", "values": [{"measurement": "48 h urine output increase from baseline", "setting": "[1]; SHP633-306, n = 6, mean ± SD", "result": "212.5 ± 265.9", "unit": "mL/day"}, {"measurement": "48 h urine output percent increase from baseline", "setting": "[1]; SHP633-306, n = 6, mean ± SD", "result": "18.0% ± 23.9%"}, {"measurement": "48 h urine output increase from baseline", "setting": "[1]; TED-C14-004, n = 9, mean ± SD", "result": "226.7 ± 555.1", "unit": "mL/day"}, {"measurement": "48 h urine output percent increase from baseline", "setting": "[1]; TED-C14-004, n = 9, mean ± SD", "result": "9.3% ± 22.4%"}, {"measurement": "Urine output increase from baseline", "setting": "[1]; [3]", "result": "306.0 ± 735.0", "unit": "mL/day"}, {"measurement": "Urine output percent increase from baseline", "setting": "[1]; [3]", "result": "11.2% ± 24.6%"}, {"measurement": "Urine output increase from baseline", "setting": "[1]; [4]", "result": "345.0 ± 217.8", "unit": "mL/day"}, {"measurement": "Urine output percent increase from baseline", "setting": "[1]; [4]", "result": "29.0 ± 21.6", "unit": "%"}, {"measurement": "Mean urine output", "setting": "[1]; [5]", "result": "1388.2 ± 507.8", "unit": "mL/day"}, {"measurement": "Urine output percent change from baseline", "setting": "[1]; [5]", "result": "−2.0% ± 35.3%"}, {"measurement": "Patients positive for anti-teduglutide antibodies", "setting": "[2]; 24 weeks, 5 out of 14 patients (n = 4 TED-C14-004; n = 1 SHP633-306)", "result": 35.7, "unit": "%"}, {"measurement": "Patients with low titers of anti-teduglutide antibodies as well as neutralizing antibodies", "setting": "[2]; 39 months, patients from TED-C14-004 in SHP633-307, two patients", "result": 40.0, "unit": "%"}, {"measurement": "Anti-teduglutide antibodies", "setting": "[2]; 51 or 54 months, n = 7", "result": "No anti-teduglutide antibodies were detected"}, {"measurement": "Patients positive at 24 weeks who also tested positive up to 22 months", "setting": "[2]; TED-C14-004", "result": "Three of the 4 patients"}, {"measurement": "Association between anti-teduglutide antibodies and a lack of efficacy", "setting": "[2]; all studies", "result": "no association"}, {"measurement": "Patients positive for antibodies to teduglutide", "setting": "[2]; month 12, SHP633-307 patients from SHP633-306, 2 out of 4", "result": 50.0, "unit": "%"}, {"measurement": "Association of anti-teduglutide antibodies with AEs of hypersensitivity or teduglutide-related hypersensitivity reaction", "setting": "[2]; patients in whom antibodies were detected", "result": "no association"}]}]}
